Patent EP4793274A1, “SALT AND CRYSTAL FORM OF KIF18A INHIBITOR COMPOUND, PREPARATION METHOD THEREFOR AND USE THEREOF” (Hubei Bio-Pharmaceutical Industrial Technological Institute …, priority 2023, dated 2025)

Columns and labels:
[1] = Solubility at room temperature in water, SGF and FaSSIF (HPLC concentration, pH of filtrate, XRPD of residual solid); settings: listed as Crystal form B of p-toluenesulfonate; for S: solubility: feeding concentration 1 mg/mL; for pH: pH of filtrate
[2] = Hygroscopicity by dynamic vapor sorption (DVS); format: physicochemical; settings: 25 °C/80% RH
Description: Dynamic vapor sorption (DVS) curves were acquired on a DVS IntrInsic from Surface Measurement Systems (SMS). The relative humidity at 25 °C was corrected with the deliquescence points of LiCl, Mg(NO3)2, and KCl. Table A-5. DVS test parameters
The percentage changes in mass of the samples when the humidity changed (0% RH to 95% RH) at a constant temperature of 25 °C were collected. 157-166.

[3] = Solid state stability (XRPD and HPLC purity); format: physicochemical
Excerpt: 167-171. […] Table C-3. Summary of solid state stability evaluation

[4] = Dynamic solubility at 37 °C in H2O, SGF, FaSSIF and FeSSIF (HPLC concentration, pH of filtrate, XRPD of residual solid); format: physicochemical; settings: listed as Crystal form B of p-toluenesulfonate; for S: solubility: feeding concentration 10 mg/mL; for FC: crystal form change: XRPD of residual solid; for pH: pH of filtrate
Description: 0.82 mL of glacial acetic acid and 1.18 g of NaCl were added to a 100 mL volumetric flask and completely dissolved by addition of purified water.
The solubility of each sample in H2O, SGF, FaSSIF, and FeSSIF was determined at different time points (1 h, 2 h, 4 h, and 24 h). […] 137-156. […] Table C-2. Summary of dynamic solubility test results at 37 °C

[5] = 80 °C/sealed, 1 day, listed as Crystal form B of p-toluenesulfonate

Cc1cc(-c2cnn(-c3ccc(NS(=O)(=O)CCO)cc3N3CCC4(CC3)CC4)c2)nc(N2CCC(F)(F)CC2)n1 [crystal form B of the p-toluenesulfonate]
S: solubility ([1]; FaSSIF, 2 h, 120 min): 85.8 µg/mL | S: solubility ([1]; FaSSIF, 24 h, 1440 min): 37.8 µg/mL | S: solubility ([1]; H2O, 24 h, 1440 min): 0.1 µg/mL | S: solubility ([1]; SGF, 2 h, 120 min): 41.3 µg/mL | S: solubility ([1]; SGF, 24 h, 1440 min): 19.7 µg/mL | pH ([1]; FaSSIF, 2 h): 6.5 | pH ([1]; FaSSIF, 24 h): 6.4 | pH ([1]; H2O, 2 h): 3.4 | pH ([1]; H2O, 24 h): 2.8 | pH ([1]; SGF, 2 h): 1.9 | pH ([1]; SGF, 24 h): 1.8 | vapor sorption values [2]: 0.171% | HPLC results Relative to starting (%) ([3]; 25 °C/60% RH/open, 1 week): 100.0% | HPLC results Purity (area%) ([3]; 25 °C/60% RH/open, 1 week, listed as Crystal form B of p-toluenesulfonate): 98.27 area% | HPLC results Relative to starting (%) ([3]; 40 °C/75% RH/open, 1 week): 100.0% | HPLC results Purity (area%) ([3]; 40 °C/75% RH/open, 1 week, listed as Crystal form B of p-toluenesulfonate): 98.25 area% | HPLC results Purity (area%) [3, 5]: 98.28 area% | HPLC results Relative to starting (%) [3, 5]: 100.0% | HPLC results Purity (area%) ([3]; Starting, listed as Crystal form B of p-toluenesulfonate): 98.28 area% | Crystal form ([3]; XRPD after 25 °C/60% RH/open, 1 week, listed as Crystal form B of p-toluenesulfonate): Crystal form B of p-toluenesulfonate | Crystal form ([3]; XRPD after 40 °C/75% RH/open, 1 week, listed as Crystal form B of p-toluenesulfonate): Crystal form B of p-toluenesulfonate | Crystal form ([3]; XRPD after 80 °C/sealed, 1 day, listed as Crystal form B of p-toluenesulfonate): Crystal form B of p-toluenesulfonate | S: solubility ([4]; FaSSIF, 1 h, 60 min): 61.4 µg/mL | S: solubility ([4]; FaSSIF, 2 h, 120 min): 51.7 µg/mL | S: solubility ([4]; FaSSIF, 4 h, 240 min): 22.2 µg/mL | S: solubility ([4]; FaSSIF, 24 h, 1440 min): 16.3 µg/mL | S: solubility ([4]; FeSSIF, 1 h, 60 min): 182.8 µg/mL | S: solubility ([4]; FeSSIF, 2 h, 120 min): 166.5 µg/mL | S: solubility ([4]; FeSSIF, 4 h, 240 min): 159.9 µg/mL | S: solubility ([4]; FeSSIF, 24 h, 1440 min): 81.4 µg/mL | S: solubility ([4]; H2O, 1 h, 60 min): 2.7 µg/mL | S: solubility ([4]; H2O, 2 h, 120 min): 2.5 µg/mL | S: solubility ([4]; H2O, 4 h, 240 min): 1.9 µg/mL | S: solubility ([4]; H2O, 24 h, 1440 min): 1.5 µg/mL | S: solubility ([4]; SGF, 1 h, 60 min): 56.8 µg/mL | S: solubility ([4]; SGF, 2 h, 120 min): 45.6 µg/mL | S: solubility ([4]; SGF, 4 h, 240 min): 23.3 µg/mL | S: solubility ([4]; SGF, 24 h, 1440 min): 18.1 µg/mL | FC: crystal form change ([4]; FaSSIF, 1 h): Yes | FC: crystal form change ([4]; FaSSIF, 2 h): Yes | FC: crystal form change ([4]; FaSSIF, 4 h): Yes | FC: crystal form change ([4]; FaSSIF, 24 h): Yes | FC: crystal form change ([4]; FeSSIF, 1 h): Yes | FC: crystal form change ([4]; FeSSIF, 2 h): Yes | FC: crystal form change ([4]; FeSSIF, 4 h): Yes | FC: crystal form change ([4]; FeSSIF, 24 h): Yes | FC: crystal form change ([4]; H2O, 1 h): Yes | FC: crystal form change ([4]; H2O, 2 h): Yes | FC: crystal form change ([4]; H2O, 4 h): Yes | FC: crystal form change ([4]; H2O, 24 h): Yes | FC: crystal form change ([4]; SGF, 1 h): Yes | FC: crystal form change ([4]; SGF, 2 h): Yes | FC: crystal form change ([4]; SGF, 4 h): Yes | FC: crystal form change ([4]; SGF, 24 h): Yes | pH ([4]; FaSSIF, 1 h): 2.92 | pH ([4]; FaSSIF, 2 h): 2.84 | pH ([4]; FaSSIF, 4 h): 2.74 | pH ([4]; FaSSIF, 24 h): 2.68 | pH ([4]; FeSSIF, 1 h): 4.68 | pH ([4]; FeSSIF, 2 h): 4.66 | pH ([4]; FeSSIF, 4 h): 4.68 | pH ([4]; FeSSIF, 24 h): 4.74 | pH ([4]; H2O, 1 h): 2.17 | pH ([4]; H2O, 2 h): 2.17 | pH ([4]; H2O, 4 h): 2.09 | pH ([4]; H2O, 24 h): 1.95 | pH ([4]; SGF, 1 h): 1.64 | pH ([4]; SGF, 2 h): 1.63 | pH ([4]; SGF, 4 h): 1.60 | pH ([4]; SGF, 24 h): 1.59
